The values below come from ChEMBL document CHEMBL4020732, “Synthesis, structural characterization and biological activity of novel Knoevenagel condensates on DLD-1 human colon carcinoma” (Bioorg Med Chem Lett, 2017).

The structures appear in SMILES notation. Activity calls are given as the source filed them. The calls are words filed in the database; no cut-off is given here.

The nature of assay [1]: Antioxidant activity of the compound assessed as DPPH radical scavenging activity after 5 mins by spectrophotometric method. It is filed as functional. Further details: unit not given here. In general terms: Loss of DPPH colour is used to gauge radical scavenging.
The subject of assay [2] is DLD-1. Description: Antioxidant activity in human DLD1 cells assessed as ratio of reduced glutathione to oxidized glutathione by ortho-phthalaldehyde probe based fluorescence spectrometric method (reference value: 3.19 +/- 0.2). The class given is functional.
In assay [3] the target is T1, Superoxide dismutase [Mn], mitochondrial (Homo sapiens) (UniProt P04179).
T1 sequence (whole entry): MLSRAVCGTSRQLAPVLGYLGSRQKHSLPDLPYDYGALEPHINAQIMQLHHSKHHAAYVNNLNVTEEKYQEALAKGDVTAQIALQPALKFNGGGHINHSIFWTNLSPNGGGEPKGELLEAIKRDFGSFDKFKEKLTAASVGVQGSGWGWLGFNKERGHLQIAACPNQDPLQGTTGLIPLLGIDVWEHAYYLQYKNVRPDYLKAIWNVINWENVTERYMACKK
As to the kind of experiment: Inhibition of mitochondrial SOD2 in human DLD1 cells at 100 uM using xanthine as substrate pretreated for 24 hrs followed by substrate addition after 5 mins by NBT dye based spectrophotometric method. It is filed as cell-based.

Assay [4] deals with DLD-1. As to the kind of experiment: Antioxidant activity in human DLD1 cells assessed as glutathione reactivity by measuring GSH level per mg protein by ortho-phthalaldehyde probe based fluorescence spectrometric method (reference value: 2.19 +/- 0.18 nmol). The class given is functional.
Assay [5] can be described thus: Antioxidant activity of the compound assessed as DPPH radical scavenging activity at 1 mM after 5 mins by spectrophotometric method. The class given is functional.
A short description of assay [6]: Glutathione reactivity assessed as rate constant for total GSH loss by UV-vis spectrophotometric method.
In assay [7] the test system is DLD-1. As to the kind of experiment: Antioxidant activity in human DLD1 cells assessed as glutathione reactivity by measuring GSSG level per mg protein by ortho-phthalaldehyde probe based fluorescence spectrometric method (reference value: 0.69 nmol). It is filed as functional.
Assay [8] has as its system DLD-1. As to the kind of experiment: Antiproliferative activity against human DLD1 cells at 100 uM after 4 to 48 hrs by Alamar blue assay. It is filed as functional, cell-based. A general note: Alamar Blue is a resazurin reagent that responds to reducing activity.
Assay [9] concerns the target Superoxide dismutase 1/2 (Homo sapiens) (UniProt P00441+P04179). As to the kind of experiment: Inhibition of SOD1/SOD2 in human DLD1 cells at 100 uM using xanthine as substrate pretreated for 24 hrs followed by substrate addition measured after 5 mins by NBT dye based spectrophotometric method. It is filed as cell-based.
The nature of assay [10]: Antioxidant activity assessed as ABTS radical scavenging activity at 100 uM after 5 mins by spectrophotometric method. The class given is functional.
Assay [11] relates to DLD-1. Description: Down regulation of MRP1 expression in human DLD1 cells at 100 uM after 24 hrs by fluorescence assay. The class given is functional, cell-based.
Assay [12] is described as follows: Antioxidant activity assessed as ABTS radical scavenging activity after 5 mins by spectrophotometric method. The class given is functional. Also on record: unit not given here.
Assay [13] relates to DLD-1. Description: Cytotoxicity against human DLD1 cells by MTT assay. It is filed as functional, cell-based.
The target of assay [14] is T2, Extracellular superoxide dismutase [Cu-Zn] (Homo sapiens) (UniProt P08294).
T2 sequence (whole entry): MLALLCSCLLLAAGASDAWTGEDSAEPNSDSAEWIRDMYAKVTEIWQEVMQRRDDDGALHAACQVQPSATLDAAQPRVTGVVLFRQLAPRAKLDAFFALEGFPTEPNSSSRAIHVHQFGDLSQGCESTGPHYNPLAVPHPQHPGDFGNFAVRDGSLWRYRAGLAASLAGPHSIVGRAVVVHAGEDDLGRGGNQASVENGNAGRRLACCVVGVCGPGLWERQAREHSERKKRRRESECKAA
As to the kind of experiment: Inhibition of SOD3 in human DLD1 cells at 100 uM using xanthine as substrate pretreated for 24 hrs followed by substrate addition after 5 mins by NBT dye based spectrophotometric method. It is filed as cell-based.

Chain of Superoxide dismutase 1/2 (Homo sapiens) (P00441 whole entry, looked up, one chain of several): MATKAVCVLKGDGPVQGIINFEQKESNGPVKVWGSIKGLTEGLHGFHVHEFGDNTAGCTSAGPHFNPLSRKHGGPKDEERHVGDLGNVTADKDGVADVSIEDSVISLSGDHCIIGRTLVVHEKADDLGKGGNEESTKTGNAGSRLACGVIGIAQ

On to `CCOc1ccc(C=C(C(=O)/C=C/c2ccc(O)c(OC)c2)C(=O)/C=C/c2ccc(O)c(OC)c2)cc1OCC`, for which the 1/IC50 in assay [1] is 0.014; in assay [12] it was 0.1. Moreover, the values for the IC50 in assay [1], in assay [12] and in assay [13] were 73 µM, 10 µM and 4.12 µM, respectively. For the same compound, the Ratio in [2] turned out to be 2.28. The inhibition – broadly, the percentage by which the read-out fell short of the control – in assay [3] was “Active”. Also, the Activity stood at 4.27 nmol in [4] and 1.88 nmol in assay [7]. The inhibition in [5] was determined as 61.9%; in assay [10] it was 74.9%. Moreover, the outcome in [6], in assay [8] and in [11] was Active. Further, the inhibition entry in [9] and in [14] was “inactive” in each case.
For `CCOc1cc(/C=C/C(=O)C(=Cc2ccccc2)C(=O)/C=C/c2ccc(O)c(OCC)c2)ccc1O`, the 1/IC50 was found to be 0.011 in assay [1] and 0.049 in [12]. In addition, the IC50 (commonly the point on the concentration scale where inhibition reaches its midpoint) in assay [1] is 91.4 µM; in assay [12], 20.4 µM; in assay [13], 5.06 µM. In addition, in [2], the Ratio is reported as 6.89. The inhibition entry in assay [3] and in [9] was “Active” each time. Also, the Activity in assay [4] is recorded as 3.27 nmol; in assay [7], 0.48 nmol. The inhibition in assay [5] stood at 54.7%; in [10], 60.5%. The outcome in [6], in assay [8] and in assay [11] was Active.
In the case of `COc1cc(/C=C/C(=O)C(=Cc2ccc(OC)c(OC)c2)C(=O)/C=C/c2ccc(O)c(OC)c2)ccc1O`, the 1/IC50 amounted to 0.014 in [1] and 0.148 in assay [12]. Also, the IC50 in assay [1] worked out at 71 µM; in [12] it was 6.76 µM; in [13] it was 3.07 µM. The Ratio in assay [2] is listed as 0.93. The inhibition entry in assay [3] and in [9] was “Active” throughout. The Activity in assay [4] stood at 3.93 nmol; in assay [7], 4.21 nmol. For the same compound, the figures for the inhibition in [5] and in assay [10] were 64.8% and 83.6%, respectively. For the same compound, the result in assay [6], in assay [8] and in assay [11] was Active. In addition, the inhibition entry in assay [14] was “inactive”.
In the case of `CCOc1cc(/C=C/C(=O)C(=Cc2ccc(O)cc2)C(=O)/C=C/c2ccc(O)c(OCC)c2)ccc1O`, the 1/IC50 in assay [1] was 0.021; in [12], 0.068. Besides, the IC50 is 48 µM in assay [1], 14.8 µM in [12] and 20.3 µM in assay [13]. For the same compound, the Ratio in [2] was 1.15. For the same compound, the inhibition entry in assay [3], in assay [9] and in assay [14] was “inactive” in each case. In addition, the Activity is on record as 3.59 nmol in assay [4] and 3.13 nmol in assay [7]. In addition, the inhibition in assay [5] stood at 74.4%; in [10] it was 87.7%. Also, the result in [6], in [8] and in assay [11] was Active.
